Data published in US7375086B2, “Modulators of Nod2 signaling” (The Regents of the University of Michigan, priority 2000, dated 2008).
“Also recorded” adds a separate entry of the source.

Legend:
P268S/R702W NOD2 = target: T1, P268S/R702W NOD2 (Homo sapiens, UniProt Q9HC29, P268S/R702W); test: NF-κB reporter assay in HEK293T cells expressing P268S/R702W NOD2; type: cell-based; conditions: 100 ng/ml MDP
T1 construct: expressed in transfected cells; host or cells: HEK293T
Procedure: (§1) HEK293T cells were transfected with 0.3 μg of pMX-puro expressing normal Nod2 or mutants carrying P268S (SEQ ID NOs:56 (nucleic acid) and 57 (amino acid), P268S/R702W (SEQ ID NOs: 57 (nucleic acid) and 58 (amino acid)), P268S/G908 (SEQ ID NOs: 60 (nucleic acid) and 61 (amino acid)), P268S/L1007fsinsC (SEQ ID NOs: 54 (nucleic acid) and 55 (amino acid)) or empty plasmid (−). Eight hours post-transfection, 100 ng/ml MDP was added to the cultured cells and at 24 hours post-transfection NF-κB activity was determined as described in FIG. 1A. Values represent the normalized mean data ±S.D. of triplicate cultures. The results shown are representative of three separate experiments.

P268S/L1007fsinsC NOD2 = target: T2, P268S/L1007fsinsC NOD2 (Homo sapiens, UniProt Q9HC29, P268S); test: NF-κB reporter assay in HEK293T cells expressing P268S/L1007fsinsC NOD2; type: cell-based; conditions: 100 ng/ml MDP
T2 construct: expressed in transfected cells; host or cells: HEK293T
T2 sequence (Q9HC29 with tags, fused parts or gaps P268S): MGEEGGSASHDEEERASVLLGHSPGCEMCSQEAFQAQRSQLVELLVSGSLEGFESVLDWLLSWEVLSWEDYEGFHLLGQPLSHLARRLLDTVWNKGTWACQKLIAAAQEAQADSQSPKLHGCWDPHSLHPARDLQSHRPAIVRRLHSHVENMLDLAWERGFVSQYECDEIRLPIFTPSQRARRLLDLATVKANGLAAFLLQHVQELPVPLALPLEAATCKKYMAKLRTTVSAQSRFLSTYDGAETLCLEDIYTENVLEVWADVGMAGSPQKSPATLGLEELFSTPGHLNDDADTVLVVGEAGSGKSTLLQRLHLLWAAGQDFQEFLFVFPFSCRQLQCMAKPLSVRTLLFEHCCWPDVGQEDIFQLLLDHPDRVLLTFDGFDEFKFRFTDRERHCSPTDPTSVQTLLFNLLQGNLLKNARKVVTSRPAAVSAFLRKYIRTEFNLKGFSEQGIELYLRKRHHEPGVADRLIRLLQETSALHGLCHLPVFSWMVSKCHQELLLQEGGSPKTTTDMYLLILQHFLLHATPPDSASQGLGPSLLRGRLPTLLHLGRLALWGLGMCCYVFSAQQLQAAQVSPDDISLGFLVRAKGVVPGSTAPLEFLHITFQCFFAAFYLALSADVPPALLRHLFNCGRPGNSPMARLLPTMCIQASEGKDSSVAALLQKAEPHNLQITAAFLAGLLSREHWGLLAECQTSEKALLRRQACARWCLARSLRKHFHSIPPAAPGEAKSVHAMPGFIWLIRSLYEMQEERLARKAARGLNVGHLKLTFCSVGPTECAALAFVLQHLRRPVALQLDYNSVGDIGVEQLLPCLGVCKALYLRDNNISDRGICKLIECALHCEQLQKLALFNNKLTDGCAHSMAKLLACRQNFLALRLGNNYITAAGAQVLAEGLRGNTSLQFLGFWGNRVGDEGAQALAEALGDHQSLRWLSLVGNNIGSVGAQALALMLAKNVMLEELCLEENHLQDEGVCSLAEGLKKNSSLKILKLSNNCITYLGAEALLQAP
Procedure: as §1

IL-1β mRNA = test: Quantitative RT-PCR of IL-1β transcripts in PBMNC; type: cell-based, human; conditions: normal or heterozygous NOD2 alleles, LPS 1 μg/ml, MDP 10 ng/ml
Procedure: (§2) FIGS. 20C and D show PBMNC analyzed for expression of IL-1β (C) and A1 (D) transcripts by quantitative RT-PCR.
(§3) Genotyping was performed using a ddNTP primer extension system. Nuclear extracts from LPS-stimulated cells were pre-incubated with antibody specific for p50 subunit of NF-κB to monitor the size of the NF-κB-DNA complex. cDNA was amplified with specific primers for human IL-1β, glyceraldehyde-3-phosphate-dehydrogenase (GAPDH) as described (5) and A1 (5′-[…]-3′ (SEQ ID NO: 53) and 5′-[…]-3′ (SEQ ID NO:54)). The levels of IL-1β and A1 transcripts normalized to that of GAPDH were expressed relative to those in untreated cells that were considered as baseline. Specificity of the desired PCR products was determined by melting curve analysis. Histograms represent the mean ±S.D. of triplicate analyses.
(§4) To further assess NF-κB activation, the mRNA levels of EL-1β and A1, two NF-κB target genes expressed in PBMNC (Cogswell et al., J. Immunol. 153:712 [1994]; Zong et al., Genes Dev. 13:384 [1999]), were evaluated by quantitative real-time polymerase-chain reaction (RT-PCR) analysis. Both IL-1β and A1 mRNA levels were induced by incubation with LPS and MDP in cells from individuals carrying normal or heterozygous NOD2 alleles (FIG. 20C and 20D). […] Thus, PBMNC require the expression of normal NOD2 for their response to MDP but not to LPS.

P268S/G908R NOD2 = target: T3, P268S/G908R NOD2 (Homo sapiens, UniProt Q9HC29, G908R/P268S); test: NF-κB reporter assay in HEK293T cells expressing P268S/G908R NOD2; type: cell-based; conditions: 100 ng/ml MDP
T3 construct: expressed in transfected cells; host or cells: HEK293T
T3 sequence (Q9HC29 whole entry P268S/G908R): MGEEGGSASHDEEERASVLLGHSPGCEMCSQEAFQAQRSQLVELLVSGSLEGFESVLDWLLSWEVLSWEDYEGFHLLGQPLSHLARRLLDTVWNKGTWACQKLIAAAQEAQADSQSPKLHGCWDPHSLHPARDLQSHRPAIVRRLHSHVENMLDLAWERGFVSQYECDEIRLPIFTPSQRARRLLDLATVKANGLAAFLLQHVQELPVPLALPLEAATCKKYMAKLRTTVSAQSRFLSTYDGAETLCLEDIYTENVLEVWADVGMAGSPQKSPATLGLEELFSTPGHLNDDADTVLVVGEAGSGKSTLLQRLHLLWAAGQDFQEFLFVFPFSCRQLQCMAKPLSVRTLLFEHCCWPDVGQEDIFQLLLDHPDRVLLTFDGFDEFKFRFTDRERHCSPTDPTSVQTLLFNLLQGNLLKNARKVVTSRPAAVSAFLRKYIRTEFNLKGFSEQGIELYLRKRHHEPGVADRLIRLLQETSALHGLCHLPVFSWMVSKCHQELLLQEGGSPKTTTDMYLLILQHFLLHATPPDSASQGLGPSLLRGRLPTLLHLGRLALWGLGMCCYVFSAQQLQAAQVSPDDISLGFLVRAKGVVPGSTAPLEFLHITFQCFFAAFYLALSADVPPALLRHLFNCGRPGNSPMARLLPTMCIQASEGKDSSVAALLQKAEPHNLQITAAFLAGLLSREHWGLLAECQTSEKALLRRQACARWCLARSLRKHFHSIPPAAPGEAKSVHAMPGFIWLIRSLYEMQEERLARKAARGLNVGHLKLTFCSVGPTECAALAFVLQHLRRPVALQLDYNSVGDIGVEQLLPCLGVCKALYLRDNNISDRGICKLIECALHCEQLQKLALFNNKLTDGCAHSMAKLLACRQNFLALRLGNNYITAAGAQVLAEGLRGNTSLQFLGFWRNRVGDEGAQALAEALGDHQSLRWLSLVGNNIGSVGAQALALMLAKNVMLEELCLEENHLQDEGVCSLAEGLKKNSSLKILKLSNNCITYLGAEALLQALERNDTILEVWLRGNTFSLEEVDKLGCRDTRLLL
Procedure: as §1

P268S NOD2 = target: T4, P268S NOD2 (Homo sapiens, UniProt Q9HC29, P268S); test: NF-κB reporter assay in HEK293T cells expressing P268S NOD2; type: cell-based; conditions: 100 ng/ml MDP
T4 construct: expressed in transfected cells; host or cells: HEK293T
T4 sequence (Q9HC29 whole entry P268S): as the sequence (Q9HC29 whole entry P268S/G908R) above, with R908G counted along it
Procedure: as §1

A1 mRNA = test: Quantitative RT-PCR of A1 transcripts in PBMNC; type: cell-based, human; conditions: LPS 1 μg/ml, MDP 10 ng/ml
Procedure: as §2, §3, §4

NF-κB = NF-κB binding activity by EMSA in nuclear extracts of PBMNC; type: cell-based, human; conditions: 1 μg/ml LPS from Salmonella typhimurium, 10 ng/ml MDP, 1 hour; for response of PBMNC (NF-κB-DNA complex, EMSA): PBMNC from individuals homozygous for L1007fsinsC
Procedure: as §2, §3
The NOD2 variants associated with Crohn's disease, R702W, G908R and L1007fsinsC, occur on the same haplotype background, which includes the common P268S polymorphism (Hugot et al., Nature 411:599 [2001]; Ogura et al., Nature 411:603 [2001]). To compare the ability of normal and mutant NOD2 proteins to induce NF-κB activity in response to MDP, the NOD2 proteins were expressed in cells and evaluated in a functional assay. […] The role of NOD2 in the recognition of MDP by primary cells from normal and Crohn's disease patients was next determined. A panel of healthy and Crohn's disease individuals were genotyped for the disease-associated NOD2 alleles and two individuals (one without clinical evidence of disease and one individual with Crohn's disease) who were homozygous for the loss-of-function L1007fsinsC mutation were identified (FIG. 20A). The identification of apparently healthy individuals homozygous for L1007fsinsC is expected in that the penetrance of the L1007fsinsC mutation is not complete (Hugot et al., supra; Ogura et al., supra; Hampe et al., Lancet 357:1925 [2001]; Ahmad et al., Gastroenterology 122:854 [2002]). Peripheral blood mononuclear cells (PBMNC) that are known to express NOD2 were isolated, incubated with MDP or LPS and NF-κB activation was assessed in nuclear extracts by an electrophoretic mobility shift assay (EMSA).

Nod2 = target: T5, Nod2 (Homo sapiens, UniProt Q9HC29, R703H); test: NF-κB reporter assay in HEK293T/HEK293 cells expressing Nod2; type: cell-based
T5 construct: ligated to generate an unique cDNA containing the entire open reading frame of Nod2; expressed in transfected cells; host or cells: HEK293T
T5 sequence (Q9HC29 whole entry R703H): as the sequence (Q9HC29 whole entry P268S/G908R) above, with S268P, R703H, R908G counted along it

T1 sequence (Q9HC29 whole entry P268S/R702W): as the sequence (Q9HC29 whole entry P268S/G908R) above, with R702W, R908G counted along it

response of PBMNC (NF-κB-DNA complex, EMSA) (NF-κB): but not to MDP
response of PBMNC (NF-κB-DNA complex, EMSA) (NF-κB; listed as muramyl dipeptide): defective in their response
stimulation of NOD2 activity (Nod2; HEK293 cells, 0.3 ng pcDNA3-Nod2, MDP 100 ng/ml, sBLP 1000 ng/ml (FIG. 18D)): stimulated NOD2 activity
SMILES: CC(=O)N[C@@H]1[C@@H](O[C@H](C)C(=O)N[C@@H](C)C(=O)N[C@H](CCC(=O)O)C(N)=O)[C@H](O)[C@@H](CO)O[C@H]1O [MDP, MurNAc-L-Ala-D-isoGln]
NF-κB activation in response to MDP, P268S/R702W variant compared to normal NOD2 (P268S/R702W NOD2): greatly reduced levels of NF-κB activation; also recorded: retained some ability to respond
NF-κB activation in response to MDP, P268S/L1007fsinsC variant compared to normal NOD2 (P268S/L1007fsinsC NOD2): greatly reduced levels of NF-κB activation; also recorded: did not respond at all
IL-1β mRNA levels (IL-1β mRNA): induced
NF-κB activation in response to MDP, P268S/G908R variant compared to normal NOD2 (P268S/G908R NOD2): greatly reduced levels of NF-κB activation
NF-κB activation in response to MDP, P268S NOD2 (P268S NOD2): induced similar levels of NF-κB activation
A1 mRNA levels (A1 mRNA; homozygous for L1007fsinsC): but not MDP
A1 mRNA levels (A1 mRNA; normal or heterozygous NOD2 alleles): induced
induction of the NF-κB-DNA complex (EMSA) (NF-κB; PBMNC from individuals carrying normal or heterozygous NOD2 alleles): resulted in induction of the NF-κB-DNA complex
NOD2-dependent stimulation of NF-κB by synthetic muropeptides (Nod2; HEK293T cells, 66 ng pMX-puro-NOD2 (FIG. 18B)): induced potent stimulation of NOD2; also recorded: induced Nod2-dependent activation of NF-κB
NF-κB activation in response to MDP, normal NOD2 (Nod2; HEK293T cells, 100 ng/ml MDP): induced similar levels of NF-κB activation
